From patent US9084422B2, “Anthranilamides compositions” (E I DU PONT DE NEMOURS AND COMPANY, priority 2001, dated 2015)

Test system: tobacco budworm (Heliothis virescens)
Assay: Test H: soil systemic control of tobacco budworm on cotton
Assay type: in vivo
Conditions: soil treatment at 10 ppm
Description: For evaluating soil systemic control of tobacco budworm (Heliothis virescens), cotton plants were grown in sassafras soil in 15-cm pots in aluminum trays. When the plants reached square stage (bud formation on the plant) the plants were treated with the test compounds.
Test compounds were formulated in 0.25 mL of acetone and then diluted with water to provide solutions of 1, 5, 10 and 50 ppm. 10 mL of the treatment solutions were added to the pots weekly for four weeks, with four replicates of each treatment rate. One day after the second, third and fourth treatments, 35-50 first instar Heliothis virescens larvae were brushed on each plant with paintbrushes and placed on the terminal area, squares, and bolls. Five days after the last infestation with larvae the plants were rated for damage. Of the compounds tested, the following provided excellent levels of plant protection at 10 ppm (10% or less feeding damage): 16.

Cc1cc(Br)cc(C(=O)NC(C)C)c1NC(=O)c1cc(Br)nn1-c1ncccc1Cl [Compound 16]
protection of squares and bolls: no feeding or minimal sepal damage
feeding damage (excellent levels of plant protection) (10 mL weekly for four weeks, rated five days after last infestation): ≤ 10%
